Laboratory results taken from EP2119770B1, “Production of alpha-oxyfunctionalized carbonyl compounds” (priority 2008, dated 2009).
“And” between values parts separate entries of the source, which are not always exact repeats. Identical values can stand only once.

Experiments:
[1] = biological target: T1, Gox0646 (Gluconobacter oxydans, UniProt Q5FT73); assay: Enzyme activity assay (rate of NAD(P)H decrease at 340 nm), Gox0646; assay type: biochemical; details: 10 mM substrate; for Specific Activities: Tab. 9, GOX0646, cofactor NADPH, pH 7.0, 30 °C
T1 sequence (Q5FT73 1-264): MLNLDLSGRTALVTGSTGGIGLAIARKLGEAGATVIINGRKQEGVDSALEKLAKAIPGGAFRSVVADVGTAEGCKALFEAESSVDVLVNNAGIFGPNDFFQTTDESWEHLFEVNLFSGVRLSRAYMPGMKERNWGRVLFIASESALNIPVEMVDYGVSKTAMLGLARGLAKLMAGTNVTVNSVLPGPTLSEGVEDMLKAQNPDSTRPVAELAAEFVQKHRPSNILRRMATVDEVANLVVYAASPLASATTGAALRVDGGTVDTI
Protocol: (§1) Measurment of enzyme activity: NADPH-dependent alpha-ketocarbonyl reductases were assayed by a routine method used for NAD(P)-linked enzymes by recording the rate of decrease of NADPH at 340 nm (ε = 6.22 mM^-1 x cm^-1)) with substrates at 30 °C. The reaction mixture (1 ml) for reduction of alpha-ketocarbonyl substrates contained 10 mM substrate, 40 mM potassium phosphate buffer pH 7.0, 0.025 mM NAD(P)H , and the enzyme. Reactions were induced by addition of enzyme or substrate. One unit of enzyme activity was defined as the amount of enzyme catalyzing the conversion of 1 µmol of pyridine nucleotide per min at 30 °C.
(§2) NADPH-dependent α-ketocarbonyl reductases were assayed by a routine method used for NAD(P)-linked enzymes by recording the rate of decrease of NADPH at 340 nm (ε = 6.22 mM^-1.cm^-1) with substrates at 30 °C. The reaction mixture (1 ml) for reduction of alpha-ketocarbonyl substrates contained 10 mM substrate, 40 mM potassium phosphate buffer pH 7.0, 0.025 mM NADPH , and the enzyme. Reactions were induced by addition of enzyme or substrate. One unit of enzyme activity was defined as the amount of enzyme catalyzing the conversion of 1 µmol of pyridine nucleotide per min at 30 °C.
(§3) For each enzyme (Gox0313, Gox0502, Gox0644, Gox0646, Gox1615, Gox2107, and Gox2684 respectively), fresh enzyme preparations were used to validate the substrate spectrum and the kinetic activity. […] Purified NAD(P)-dependent oxidoreductases were assayed at 30 °C by a routine method used for NAD(P)-linked enzymes by recording the rate of decrease of NAD(P)H at 340 nm (ε = […]) with substrates capable of reduction reactions. The standard reaction mixture (1 ml) for the reduction reactions of substrates contained 10 mM substrate, 40 mM potassium phosphate buffer (K-phosphate buffer) pH 7.0, 0.05 mM NAD(P)H, and the enzyme unless otherwise noted. Reactions were induced by addition of enzyme or substrate. One unit of enzyme activity was defined as the amount of enzyme catalyzing the conversion of 1 µmol of pyridine nucleotide per min at 30 °C. Measurement of the protein content was performed by the method of Bradford in Anal. Biochem. 72:248-254 (1976). Table 3: Summary of enzymatic activities with α-diketones, α-ketoaldehydes and /or α-ketoesters

[2] = biological target: T2, Gox2684 (Gluconobacter oxydans, UniProt Q5HXK5); assay: Enzyme activity assay (rate of NAD(P)H decrease at 340 nm), Gox2684; assay type: biochemical; details: Tab. 8, GOX2684; cofactor NADPH; 10 mM substrate, pH 7.0, 30 °C
T2 sequence (Q5HXK5 1-357): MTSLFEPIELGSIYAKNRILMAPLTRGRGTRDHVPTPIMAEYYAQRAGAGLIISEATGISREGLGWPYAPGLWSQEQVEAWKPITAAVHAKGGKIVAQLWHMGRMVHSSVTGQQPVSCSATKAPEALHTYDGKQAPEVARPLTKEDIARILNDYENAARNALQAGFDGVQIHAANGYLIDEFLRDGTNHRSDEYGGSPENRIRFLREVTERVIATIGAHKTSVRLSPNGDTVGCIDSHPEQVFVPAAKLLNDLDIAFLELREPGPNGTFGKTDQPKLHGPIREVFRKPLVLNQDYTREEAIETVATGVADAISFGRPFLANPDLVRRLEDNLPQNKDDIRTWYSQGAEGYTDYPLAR
Protocol: as §1, §2, §3

[3] = biological target: T3, Gox0502 (Gluconobacter oxydans, UniProt Q5FTL6); assay: Enzyme activity assay (rate of NAD(P)H decrease at 340 nm), Gox0502; assay type: biochemical; set-up: Strep-tag II (N); made in house; host or cells: E. coli BL21 or E. coli DH5α (pASK-IBA5); details: 10 mM substrate; for Specific Activity: Tab. 7, Gox0502, cofactor NADPH, pH 7.0, 30 °C
T3 sequence (Q5FTL6 1-361): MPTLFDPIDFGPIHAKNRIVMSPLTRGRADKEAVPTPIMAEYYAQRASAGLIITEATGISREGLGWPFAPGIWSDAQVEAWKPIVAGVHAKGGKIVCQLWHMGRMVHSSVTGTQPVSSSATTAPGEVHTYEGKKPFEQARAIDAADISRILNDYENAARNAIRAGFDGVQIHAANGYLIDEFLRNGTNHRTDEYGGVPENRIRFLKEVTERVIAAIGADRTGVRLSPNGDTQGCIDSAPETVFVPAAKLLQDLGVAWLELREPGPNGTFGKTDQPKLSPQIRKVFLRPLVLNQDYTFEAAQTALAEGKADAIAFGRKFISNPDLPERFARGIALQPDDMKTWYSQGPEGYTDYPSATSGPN
Protocol: as §1, §2, §3

[4] = biological target: Gox2107 (Gluconobacter oxydans, UniProt Q5FP53); assay: Enzyme activity assay (rate of NAD(P)H decrease at 340 nm), Gox2107; assay type: biochemical; details: for Specific Activity: Tab. 7, Gox2107, cofactor NADPH, 10 mM substrate, pH 7.0, 30 °C
Protocol: as §1, §2, §3

[5] = biological target: Gox0644 (Gluconobacter oxydans, UniProt Q5FT75); assay: Enzyme activity assay (rate of NAD(P)H decrease at 340 nm), Gox0644; assay type: biochemical; details: 10 mM substrate; for Specific Activity: Tab. 4, Gox0644, cofactor NADPH, pH 7.0, 30 °C
Protocol: (§4) Reactions were induced by addition of enzyme or substrate. One unit of enzyme activity was defined as the amount of enzyme catalyzing the conversion of 1 µmol of pyridine nucleotide per min at 30 °C.
as §4
For each enzyme (Gox0313, Gox0502, Gox0644, Gox0646, Gox1615, Gox2107, and Gox2684 respectively), fresh enzyme preparations were used to validate the substrate spectrum and the kinetic activity. […] Reactions were induced by addition of enzyme or substrate. One unit of enzyme activity was defined as the amount of enzyme catalyzing the conversion of 1 µmol of pyridine nucleotide per min at 30 °C. […] Table 3: Summary of enzymatic activities with α-diketones, α-ketoaldehydes and /or α-ketoesters

[6] = biological target: T4, Gox1615 (Gluconobacter oxydans, UniProt Q5FQJ0); assay: Enzyme activity assay (rate of NAD(P)H decrease at 340 nm), Gox1615; assay type: biochemical; details: 10 mM substrate; for Specific Activity: Tab. 5, Gox1615, cofactor NADPH, pH 7.0, 30 °C
T4 sequence (Q5FQJ0 1-332): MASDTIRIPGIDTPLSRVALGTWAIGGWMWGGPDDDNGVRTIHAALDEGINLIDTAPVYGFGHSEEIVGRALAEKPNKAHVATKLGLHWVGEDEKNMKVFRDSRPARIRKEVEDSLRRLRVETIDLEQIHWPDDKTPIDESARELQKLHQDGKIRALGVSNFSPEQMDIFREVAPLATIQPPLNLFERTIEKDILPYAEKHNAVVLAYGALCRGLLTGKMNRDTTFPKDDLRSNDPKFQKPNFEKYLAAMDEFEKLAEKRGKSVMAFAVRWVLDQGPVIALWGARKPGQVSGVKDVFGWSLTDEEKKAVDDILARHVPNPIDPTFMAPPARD
Protocol: as §1, §2, §3

[7] = biological target: T5, Gox0313 (Gluconobacter oxydans, UniProt Q5FU50); assay: Enzyme activity assay (rate of NAD(P)H decrease at 340 nm), Gox0313; assay type: biochemical; details: 10 mM substrate; for Specific Activity: Tab. 6, Gox0313, substrate reduction, cofactor NADH, pH 7.0, 30 °C
T5 sequence (Q5FU50 1-343): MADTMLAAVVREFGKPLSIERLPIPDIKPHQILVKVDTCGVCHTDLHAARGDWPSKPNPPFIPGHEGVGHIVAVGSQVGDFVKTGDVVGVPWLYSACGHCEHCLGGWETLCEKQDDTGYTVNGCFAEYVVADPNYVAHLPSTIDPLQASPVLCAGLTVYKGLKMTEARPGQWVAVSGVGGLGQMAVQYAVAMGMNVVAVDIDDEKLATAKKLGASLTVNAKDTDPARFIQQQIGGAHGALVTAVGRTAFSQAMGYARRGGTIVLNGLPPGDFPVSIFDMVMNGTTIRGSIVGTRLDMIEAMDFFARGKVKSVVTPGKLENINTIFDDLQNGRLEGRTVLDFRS
Protocol: as §1, §2, §3

[8] = substrate: CC=O; assay: Enzyme kinetics (Lineweaver-Burk plots), Gox0313; assay type: biochemical, Gluconobacter oxydans; details: other: Gox0313; substrate 0.025 to 10 mM
Protocol: (§5) Determination of pH and temperature optima and enzyme kinetics: The optimum pH for enzyme activities was determined by a modified method of Salusjärvi, T. et al., Appl. Microbiol. Biotechnol. 65:306-314 (2004) using the following buffer system (50 mM final concentration each): sodium acetate pH 4.5 - 6.5, potassium phosphate pH 6.5 - 8.0, Tris-HCl pH 8.0 - 10. Temperature optima for the biocatalysts were determined under standard reaction conditions at temperatures ranging from 20 - 80 °C. The Michaelis constant (Km) for the proteins was determined from purified enzyme by Lineweaver-Burk plots. Assays were performed at optimum pH for each enzyme and at 30 °C using the top substrate and a targeted substrate. The Km for each substrate was calculated using concentrations of 0.0025 to 10 mM, and the Km NAD(P)H and NAD(P) was calculated using concentrations of 0.01 to 0.5 mM
(§6) The Michaelis constants were determined from purified enzyme by Lineweaver-Burk plots. The Km and Vmax values for the substrates were calculated using concentrations of 0.025 to 10 mM, The optimal pH values and temperatures for enzyme activities are also shown in Tab. 11. Tab. 11: Summary of kinetic parameters

[9] = substrate: CCC(=O)C(C)=O; assay: Enzyme kinetics (Lineweaver-Burk plots), Gox0313; assay type: biochemical, Gluconobacter oxydans; details: other: Gox0313; substrate 0.025 to 10 mM
Protocol: as §5, §6

[10] = substrate: CCC(=O)C(C)=O; assay: Enzyme kinetics (Lineweaver-Burk plots), Gox0646; assay type: biochemical, Gluconobacter oxydans; details: other: Gox0646; substrate 0.025 to 10 mM
Protocol: as §5, §6

Row | Specific Activity [5] [U/mg] | Specific Activity [6] [U/mg] | Molecule | Specific Activities [1] [U/mg] | Specific Activity [3] | Specific Activity [4] [U/mg] | further results
1 |  |  | O=C1C=CC(=O)c2ccccc21 [1,4-naphthoquinone] | 0.2 | 16.6 U/mg | 217.5 | Specific Activities [2]: 3.4 U/mg; activities ([4]; Gox2107, reduction with NADPH): 217.4 µmol/mg/min
2 | 60.0 | 6 | CC(=O)C(C)=O [2,3-butanedione] | 0.8 | 0.5 U/mg | < 0.1 | Specific Activities [2]: 0.5 U/mg; Specific Activity [7]: 28.5 U/mg
3 | 16.1 | 2.4 | O=C1Nc2ccccc2C1=O [Isatin] | 0.1 |  |  | 
4 |  |  | O=C1C=CC(=O)C=C1 [p-benzoquinone] | 0.3 | 10 U/mg | 180.5 | 
5 |  |  | Gox0313 (Gluconobacter oxydans 621H) (protein) MADTMLAAVVREFGKPLSIERLPIPDIKPHQILVKVDTCGVCHTDLHAARGDWPSKPNPPFIPGHEGVGHIVAVGSQVGDFVKTGDVVGVPWLYSACGHCEHCLGGWETLCEKQDDTGYTVNGCFAEYVVADPNYVAHLPSTIDPLQASPVLCAGLTVYKGLKMTEARPGQWVAVSGVGGLGQMAVQYAVAMGMNVVAVDIDDEKLATAKKLGASLTVNAKDTDPARFIQQQIGGAHGALVTAVGRTAFSQAMGYARRGGTIVLNGLPPGDFPVSIFDMVMNGTTIRGSIVGTRLDMIEAMDFFARGKVKSVVTPGKLENINTIFDDLQNGRLEGRTVLDFRS |  |  |  | Km [8]: 0.5 mM; Vmax [8]: 95 U/mg protein; Km [9]: 3.1 mM; Vmax [9]: 97 U/mg protein
6 |  |  | Gox0646 (Gluconobacter oxydans 621H) (protein) MLNLDLSGRTALVTGSTGGIGLAIARKLGEAGATVIINGRKQEGVDSALEKLAKAIPGGAFRSVVADVGTAEGCKALFEAESSVDVLVNNAGIFGPNDFFQTTDESWEHLFEVNLFSGVRLSRAYMPGMKERNWGRVLFIASESALNIPVEMVDYGVSKTAMLGLARGLAKLMAGTNVTVNSVLPGPTLSEGVEDMLKAQNPDSTRPVAELAAEFVQKHRPSNILRRMATVDEVANLVVYAASPLASATTGAALRVDGGTVDTI |  |  |  | Km [10]: 9 mM and 9.3 mM; Vmax [10]: 10 U/mg protein and 10.0 µmol/min•mg

Row | Molecule | Specific Activity [5] [U/mg] | Specific Activity [6] [U/mg] | Specific Activities [1] [U/mg] | Specific Activity [3] | Specific Activity [4] [U/mg] | further results
7 | CC(=O)C(=O)c1ccccc1 [1-phenyl-1,2-propanedione] | 75.4 | 5.4 | 6.0 | 2,0 U/mg | < 0.1 | Activity ([1]; Table 3, Gox0646, K-phosphate buffer pH 7.0, 0.05 mM NAD(P)H, 30 °C): 6.0 U/mg; Activity ([5]; Table 3, Gox0644, K-phosphate buffer pH 7.0, 0.05 mM NAD(P)H, 30 °C): 75.4 U/mg; Activity ([6]; Table 3, Gox1615, K-phosphate buffer pH 7.0, 0.05 mM NAD(P)H, 30 °C): 5.4 U/mg; Activity ([3]; Table 3, Gox0502, K-phosphate buffer pH 7.0, 0.05 mM NAD(P)H, 30 °C): 2.0 U/mg; Specific Activity [7]: 0.2 U/mg; Activity ([7]; Table 3, Gox0313, K-phosphate buffer pH 7.0, 0.05 mM NAD(P)H, 30 °C): 0.2 U/mg
